In experiment [1] the target is mMC4R (Mus musculus, UniProt P56450). Put plainly: cAMP based functional bioassay (CRE/β-galactosidase reporter), agonist activity at mMC4R. To be noted: for mMC4R Activity @ 10 μM (class) / mMC4R Activity @ 10 μM (relative activity, percent): reported where receptor not activated to full activity.
Experimental: (§1) The compounds were evaluated using a whole cell assay.
(§2) Compounds were dissolved in DMSO at a stock concentration of 10^−2 M and stored at −20° C. until assayed. HEK-293 cells stably expressing the selected melanocortin receptors were transiently transfected with 4 μg of CRE/β-galactosidase reporter gene. Briefly, 5000-15000 post transfection cells were plated into collagen treated 96-well plates (Nunc) and incubated overnight. […] The assay media was aspirated, and 50 μL of lysis buffer (250 mM Tris-HCl pH=8.0 and 0.1% Triton X-100) was added. The plates were stored at −80° C. overnight. The plates containing the cell lysates were thawed the following day. Aliquots of 10 μL were taken from each well and transferred to another 96-well plate for relative protein determination. To the cell lysate plates, 40 μL of phosphate-buffered saline with 0.5% BSA was added to each well. Subsequently, 150 μL of substrate buffer (60 mM sodium phosphate, 1 mM MgCl2, 10 mM KCl, 5 mM β-mercaptoethanol, 2 mg/mL ONPG) was added to each well and the plates were incubated at 37° C. The sample absorbance, OD405, was measured using a 96-well plate reader (Molecular Devices). The relative protein was determined by adding 200 μL of 1:5 dilution BioRad G250 protein dye:water to the 10 μL of cell lysate sample taken previously, and the OD595 was measured on a 96-well plate reader (Molecular Devices). Data points were normalized to forskolin and the relative protein content were used as positive controls. The EC50 values represent the mean of three or more independent experiments. The EC50 estimates, and their associated standard errors of the mean, were determined by fitting the data to a nonlinear least-squares analysis using the PRISM program (v4.0, GraphPad Inc.).
(§3) The results are tabulated in the form of EC50 values. In the case where the particular receptor was not activated to full activity at 100,000 nM, then the relative activity was reported.
Experiment [2] deals with mMC5R (Mus musculus, UniProt P41149). Put plainly: cAMP based functional bioassay (CRE/β-galactosidase reporter), agonist activity at mMC5R. To be noted: for mMC5R Activity @ 10 μM (class) / mMC5R Activity @ 10 μM (relative activity, percent): reported where receptor not activated to full activity.
Experimental: as §1, §2, §3
Experiment [3] has as its target mMC3R (Mus musculus, UniProt P33033). Put plainly: cAMP based functional bioassay (CRE/β-galactosidase reporter), agonist activity at mMC3R. The note with it: for mMC3R Activity @ 10 μM (class) / mMC3R Activity @ 10 μM (relative activity, percent): reported where receptor not activated to full activity.
Experimental: as §1, §2, §3
For experiment [4], the target named is mMC1R (Mus musculus, UniProt Q01727). Put plainly: cAMP based functional bioassay (CRE/β-galactosidase reporter), agonist activity at mMC1R. To be noted: for mMC1R Activity @ 10 μM (class) / mMC1R Activity @ 10 μM (relative activity, percent): reported where receptor not activated to full activity.
Experimental: as §1, §2, §3

SMILES strings stand for the structures. Where two headings read alike, the source gives them in different places.

A word on the EC50: it is the midpoint of the concentration-response curve.

mMC4R, sequence (P56450 whole entry): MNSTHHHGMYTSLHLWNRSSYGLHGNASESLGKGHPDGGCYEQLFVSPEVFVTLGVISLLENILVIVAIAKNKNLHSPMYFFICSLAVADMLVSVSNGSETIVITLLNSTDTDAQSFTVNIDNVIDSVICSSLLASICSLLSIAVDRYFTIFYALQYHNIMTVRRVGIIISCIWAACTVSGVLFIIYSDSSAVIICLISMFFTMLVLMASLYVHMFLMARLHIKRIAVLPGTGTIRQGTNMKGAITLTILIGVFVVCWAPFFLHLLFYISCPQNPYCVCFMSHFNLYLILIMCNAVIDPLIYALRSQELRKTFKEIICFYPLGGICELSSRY
mMC5R, sequence (P41149 whole entry): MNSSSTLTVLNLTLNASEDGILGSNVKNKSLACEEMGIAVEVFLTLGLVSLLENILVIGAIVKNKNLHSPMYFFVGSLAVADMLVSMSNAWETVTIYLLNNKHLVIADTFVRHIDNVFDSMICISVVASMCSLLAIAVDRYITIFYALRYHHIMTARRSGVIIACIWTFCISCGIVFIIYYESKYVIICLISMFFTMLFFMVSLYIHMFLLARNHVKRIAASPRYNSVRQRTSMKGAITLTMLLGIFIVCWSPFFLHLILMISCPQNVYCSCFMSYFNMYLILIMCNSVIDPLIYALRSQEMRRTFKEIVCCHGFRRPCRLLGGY
mMC1R, sequence (Q01727 whole entry): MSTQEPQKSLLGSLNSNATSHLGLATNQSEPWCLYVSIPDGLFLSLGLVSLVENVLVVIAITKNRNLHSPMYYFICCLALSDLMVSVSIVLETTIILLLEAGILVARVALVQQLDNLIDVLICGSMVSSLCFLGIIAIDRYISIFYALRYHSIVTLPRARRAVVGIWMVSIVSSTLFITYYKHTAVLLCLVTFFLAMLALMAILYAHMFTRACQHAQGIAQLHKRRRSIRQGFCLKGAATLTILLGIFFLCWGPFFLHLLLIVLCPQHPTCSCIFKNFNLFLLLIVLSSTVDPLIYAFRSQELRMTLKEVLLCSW
mMC3R, sequence (P33033 whole entry): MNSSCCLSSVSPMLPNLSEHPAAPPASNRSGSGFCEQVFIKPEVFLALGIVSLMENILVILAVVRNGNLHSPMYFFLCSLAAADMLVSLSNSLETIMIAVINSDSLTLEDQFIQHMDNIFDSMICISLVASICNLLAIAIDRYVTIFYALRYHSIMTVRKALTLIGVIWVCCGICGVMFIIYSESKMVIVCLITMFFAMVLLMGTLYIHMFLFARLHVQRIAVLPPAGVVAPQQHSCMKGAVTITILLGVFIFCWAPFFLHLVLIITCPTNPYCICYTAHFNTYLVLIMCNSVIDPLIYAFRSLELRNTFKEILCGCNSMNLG

Take `CC(=O)N[C@@H](Cc1c[nH]cn1)C(=O)N[C@H](Cc1ccccc1)C(=O)N[C@@H](CCCNC(=N)N)C(=O)N[C@@H](Cc1c[nH]c2ccccc12)C(N)=O` [Ac-His-DPhe-Arg-Trp-NH2, reference compound]: the concentration for a half-maximal effect (EC50) was found to be 5.5 ± 0.8 nM in experiment [1] (read-out: mMC4R Mean ± SEM (agonist EC50), HEK-293 cells, mean of three or more experiments) and 4.2 ± 1 nM in experiment [2] (read-out: mMC5R Mean ± SEM (agonist EC50), HEK-293 cells, mean of three or more experiments).

Regarding `CC(C)CCCN1C(=N)N([C@H](CC2CCCCC2)CN2CCC[C@H]2CN2C(=N)NC[C@H]2CC(C)C)C[C@H]1[C@H](C)O` [TPI 2509-6], in experiment [3], the “mMC3R Activity @ 10 μM (class)” value is given as “B (B: >51%)” and the “mMC3R Activity @ 10 μM (relative activity, percent)” value was found to be 58%. For the same compound, in experiment [1], the “mMC4R Activity @ 10 μM (class)” value is given as “A (A: <50%)”. It took 630 ± 50 nM to reach a half-maximal effect in experiment [2] (EC50). The compound also displayed an EC50 in experiment [4] of 7300 ± 4400 nM.

Take `CCC[C@@H]1CN([C@H](CC2CCCCC2)CN2CCC[C@H]2CN2C(=N)NC[C@H]2CC(C)C)C(=N)N1CC12CC3CC(CC(C3)C1)C2` [TPI 2509-7]: in experiment [3], the “mMC3R Activity @ 10 μM (class)” value was “B (B: >51%)” and the “mMC3R Activity @ 10 μM (relative activity, percent)” value is on record as 67%. In experiment [1], the “mMC4R Activity @ 10 μM (class)” value is “A (A: <50%)” and the “mMC4R Activity @ 10 μM (relative activity, percent)” value was 51%. This compound gave an EC50 in experiment [2] of 470 ± 90 nM. In addition, in experiment [4], the “mMC1R Activity @ 10 μM (class)” value was “B (B: >51%)” and the “mMC1R Activity @ 10 μM (relative activity, percent)” value was 70%.

For the compound `CCC[C@@H]1CN([C@H](CC2CCCCC2)CN2CCC[C@H]2CN2C(=N)NC[C@H]2CC(C)C)C(=N)N1CC1CCC(C(C)(C)C)CC1` (stereo partly drawn) [TPI 2509-8, (R)-3-((4-(tert-butyl)cyclohexyl)methyl)-1-((R)-1-cyclohexyl-3-((S)-2-(((R)-2-imino-5-isobutylimidazolidin-1-yl)methyl)pyrrolidin-1-yl)propan-2-yl)-4-propylimidazolidin-2-imine], in experiment [3], the “mMC3R Activity @ 10 μM (class)” value was “B (B: >51%)” and the “mMC3R Activity @ 10 μM (relative activity, percent)” value is 75%. Moreover, in experiment [1], the “mMC4R Activity @ 10 μM (class)” value was “B (B: >51%)” and the “mMC4R Activity @ 10 μM (relative activity, percent)” value came to 65%. The compound also gave a concentration for a half-maximal effect (EC50) in experiment [2] of 530 ± 50 nM. The same compound yielded an EC50 in experiment [4] of 500 ± 50 nM.

For the compound `CCC[C@@H]1CN([C@H](CC2CCCCC2)CN2CCC[C@H]2CN2C(=N)NC[C@H]2CC(C)C)C(=N)N1CCCC(C)C` [TPI 2509-9], the “mMC3R Activity @ 10 μM (class)” value in experiment [3] is “B (B: >51%)”. The “mMC3R Activity @ 10 μM (relative activity, percent)” value in experiment [3] worked out at 58%. Further, the concentration giving a half-maximal response (EC50) in experiment [1] was 6700 ± 2400 nM; in experiment [2], 1800 ± 130 nM; in experiment [4], 2300 ± 90 nM.

With `CC(C)C[C@@H]1CNC(=N)N1C[C@@H]1CCCN1C[C@@H](CC1CCCCC1)N1C[C@@H](C(C)C)N(CC23CC4CC(CC(C4)C2)C3)C1=N` [TPI 2509-10], in experiment [3], the “mMC3R Activity @ 10 μM (class)” value was “B (B: >51%)” and the “mMC3R Activity @ 10 μM (relative activity, percent)” value came out at 70%. In experiment [1], the “mMC4R Activity @ 10 μM (class)” value is “A (A: <50%)” and the “mMC4R Activity @ 10 μM (relative activity, percent)” value turned out to be 50%. In experiment [2], this compound came in with an EC50 of 500 ± 40 nM. Besides, the concentration for a half-maximal effect (EC50) in experiment [4] was 570 ± 150 nM.

Turning to `CC(C)C[C@@H]1CNC(=N)N1C[C@@H]1CCCN1C[C@@H](CC1CCCCC1)N1C[C@@H](C(C)C)N(CC2CCC(C(C)(C)C)CC2)C1=N` (stereo partly drawn) [TPI 2509-11, (R)-3-((4-(tert-butyl)cyclohexyl)methyl)-1-((R)-1-cyclohexyl-3-((S)-2-(((R)-2-imino-5-isobutylimidazolidin-1-yl)methyl)pyrrolidin-1-yl)propan-2-yl)-4-isopropylimidazolidin-2-imine], in experiment [3], the “mMC3R Activity @ 10 μM (class)” value was “B (B: >51%)” and the “mMC3R Activity @ 10 μM (relative activity, percent)” value turned out to be 69%. In experiment [2], the EC50 worked out at 560 ± 50 nM. Further, in experiment [4], the “mMC1R Activity @ 10 μM (class)” value was “B (B: >51%)” and the “mMC1R Activity @ 10 μM (relative activity, percent)” value was determined as 54%.

As for `CC(C)CCCN1C(=N)N([C@H](CC2CCCCC2)CN2CCC[C@H]2CN2C(=N)NC[C@H]2CC(C)C)C[C@H]1C(C)C` [TPI 2509-12], in experiment [3], the “mMC3R Activity @ 10 μM (class)” value is recorded as “A (A: <50%)” and the “mMC3R Activity @ 10 μM (relative activity, percent)” value amounted to 33%. The “mMC4R Activity @ 10 μM (class)” value in experiment [1] was “B (B: >51%)”. Also, the half-maximal effective concentration (EC50) in experiment [2] amounted to 1850 ± 800 nM. Besides, in experiment [4], the “mMC1R Activity @ 10 μM (class)” value is recorded as “B (B: >51%)” and the “mMC1R Activity @ 10 μM (relative activity, percent)” value was 50%.

In the case of `CC(C)CCCN1C(=N)N([C@H](Cc2ccccc2)CN2CCC[C@H]2CN2C(=N)NC[C@H]2CC(C)C)C[C@H]1[C@@H](C)O` [TPI 2509-15, (R)-1-((S)-2-imino-1-((R)-1-((S)-2-(((R)-2-imino-5-isobutylimidazolidin-1-yl)methyl)pyrrolidin-1-yl)-3-phenylpropan-2-yl)-3-(4-methylpentyl)imidazolidin-4-yl)ethanol], in experiment [2], the “mMC5R Activity @ 10 μM (class)” value is listed as “B (B: >51%)” and the “mMC5R Activity @ 10 μM (relative activity, percent)” value was determined as 77%. Moreover, in experiment [4], the “mMC1R Activity @ 10 μM (class)” value is given as “B (B: >51%)” and the “mMC1R Activity @ 10 μM (relative activity, percent)” value was 62%.

In the case of `CCC[C@@H]1CN([C@H](Cc2ccccc2)CN2CCC[C@H]2CN2C(=N)NC[C@H]2CC(C)C)C(=N)N1CCCC(C)C` [TPI 2509-18, (R)-1-((R)-1-((S)-2-(((R)-2-imino-5-isobutylimidazolidin-1-yl)methyl)pyrrolidin-1-yl)-3-phenylpropan-2-yl)-3-(4-methylpentyl)-4-propylimidazolidin-2-imine], in experiment [1], the “mMC4R Activity @ 10 μM (class)” value was “B (B: >51%)”. The EC50 in experiment [2] is 2180 ± 625 nM.

Take `CC(C)C[C@@H]1CNC(=N)N1C[C@@H]1CCCN1C[C@@H](Cc1ccccc1)N1C[C@@H](C(C)C)N(CC2CCC(C(C)(C)C)CC2)C1=N` (stereo partly drawn) [TPI 2509-20, (R)-3-((4-(tert-butyl)cyclohexyl)methyl)-1-((R)-1-((S)-2-(((R)-2-imino-5-isobutylimidazolidin-1-yl)methyl)pyrrolidin-1-yl)-3-phenylpropan-2-yl)-4-isopropylimidazolidin-2-imine]: the “mMC3R Activity @ 10 μM (class)” value in experiment [3] was “B (B: >51%)”. Further, the “mMC3R Activity @ 10 μM (relative activity, percent)” value in experiment [3] worked out at 62%. In addition, the results for the EC50 in experiment [2] and in experiment [4] were 560 ± 170 nM and 6800 ± 600 nM, respectively.

In the case of `CC(C)CCCN1C(=N)N([C@H](Cc2ccccc2)CN2CCC[C@H]2CN2C(=N)NC[C@H]2CC(C)C)C[C@H]1C(C)C` [TPI 2509-21, (R)-1-((R)-1-((S)-2-(((R)-2-imino-5-isobutylimidazolidin-1-yl)methyl)pyrrolidin-1-yl)-3-phenylpropan-2-yl)-4-isopropyl-3-(4-methylpentyl)imidazolidin-2-imine], in experiment [3], the “mMC3R Activity @ 10 μM (class)” value was “A (A: <50%)”. In addition, the “mMC4R Activity @ 10 μM (class)” value in experiment [1] was “A (A: <50%)”. For the same compound, the EC50 in experiment [2] was found to be 1260 ± 130 nM.

Turning to `CC(C)CCCN1C(=N)N([C@H](CC2CCCCC2)CN2CCC[C@H]2CN2C(=N)NC[C@H]2C(C)C)C[C@H]1[C@@H](C)O` [TPI 2509-24, (R)-1-((S)-1-((R)-1-cyclohexyl-3-((S)-2-(((R)-2-imino-5-isopropylimidazolidin-1-yl)methyl)pyrrolidin-1-yl)propan-2-yl)-2-imino-3-(4-methylpentyl)imidazolidin-4-yl)ethanol], the concentration giving a half-maximal response (EC50) in experiment [3] amounted to 5200 ± 1540 nM; in experiment [2], 740 ± 270 nM; in experiment [4], 700 ± 80 nM.

In the case of `CC(C)CCCN1C(=N)N([C@H](Cc2ccccc2)CN2CCC[C@H]2CN2C(=N)NC[C@H]2C(C)C)C[C@H]1[C@@H](C)O` [TPI 2509-33, (R)-1-((S)-2-imino-1-((R)-1-((S)-2-(((R)-2-imino-5-isopropylimidazolidin-1-yl)methyl)pyrrolidin-1-yl)-3-phenylpropan-2-yl)-3-(4-methylpentyl)imidazolidin-4-yl)ethanol], in experiment [2], the “mMC5R Activity @ 10 μM (class)” value is recorded as “A (A: <50%)” and the “mMC5R Activity @ 10 μM (relative activity, percent)” value amounted to 40%. The “mMC1R Activity @ 10 μM (class)” value in experiment [4] was “B (B: >51%)”.

`CCC[C@@H]1CN([C@H](Cc2ccccc2)CN2CCC[C@H]2CN2C(=N)NC[C@H]2C(C)C)C(=N)N1CCCC(C)C` [TPI 2509-36, (R)-1-((R)-1-((S)-2-(((R)-2-imino-5-isopropylimidazolidin-1-yl)methyl)pyrrolidin-1-yl)-3-phenylpropan-2-yl)-3-(4-methylpentyl)-4-propylimidazolidin-2-imine]: in experiment [1], the “mMC4R Activity @ 10 μM (class)” value was “A (A: <50%)” and the “mMC4R Activity @ 10 μM (relative activity, percent)” value was 41%. In experiment [2], this compound displayed an EC50 of 2030 ± 980 nM. Further, the EC50 in experiment [4] was determined as 22900 ± 10000 nM.

Take `CC(C)[C@@H]1CNC(=N)N1C[C@@H]1CCCN1C[C@@H](Cc1ccccc1)N1C[C@@H](C(C)C)N(CC2CCC(C(C)(C)C)CC2)C1=N` (stereo partly drawn) [TPI 2509-38, (R)-3-((4-(tert-butyl)cyclohexyl)methyl)-1-((R)-1-((S)-2-(((R)-2-imino-5-isopropylimidazolidin-1-yl)methyl)pyrrolidin-1-yl)-3-phenylpropan-2-yl)-4-isopropylimidazolidin-2-imine]: the “mMC3R Activity @ 10 μM (class)” value in experiment [3] is reported as “B (B: >51%)”. In experiment [3], the “mMC3R Activity @ 10 μM (relative activity, percent)” value is on record as 68%. In addition, the EC50 was determined as 600 ± 170 nM in experiment [2] and 29100 ± 20000 nM in experiment [4].

In the case of `CC(C)CCCN1C(=N)N([C@H](Cc2ccccc2)CN2CCC[C@H]2CN2C(=N)NC[C@H]2C(C)C)C[C@H]1C(C)C` [TPI 2509-39, (R)-1-((R)-1-((S)-2-(((R)-2-imino-5-isopropylimidazolidin-1-yl)methyl)pyrrolidin-1-yl)-3-phenylpropan-2-yl)-4-isopropyl-3-(4-methylpentyl)imidazolidin-2-imine], the “mMC4R Activity @ 10 μM (class)” value in experiment [1] was “A (A: <50%)”. In addition, the “mMC4R Activity @ 10 μM (relative activity, percent)” value in experiment [1] is 21%. For the same compound, the EC50 in experiment [2] was 1600 ± 460 nM; in experiment [4], 10200 ± 6570 nM.
